Laboratory results as given in article PMC11117333, “Design and synthesis of new dihydropyrimidine/sulphonamide hybrids as promising anti-inflammatory agents via dual mPGES-1/5-LOX inhibition” (Frontiers in Chemistry, 2024).
“And” between values parts separate entries of the source, which are not always exact repeats. Identical values can stand only once. Marks after values point to notes of the source that are not given here.

Tests used:
[1] = target: T1, mPGES-1 (Homo sapiens, UniProt O14684); assay: Cell-free mPGES-1 enzyme assay (microsomal fractions from IL-1β-stimulated A549 cells); format: biochemical; conditions: for remaining activity at 10 µM: 10 µM compound, read-out: mPGES-1 RA (%) 10 µM (residual activity percentage); for remaining activity at 10 µM / IC50: cell-free, A549 microsomes
T1 construct: microsomal fractions from IL-1β-stimulated A549 cells served as the enzyme source; endogenous in cells; host or cells: A549 cells (IL-1β-stimulated), microsomal fraction
T1 sequence (O14684 1-152): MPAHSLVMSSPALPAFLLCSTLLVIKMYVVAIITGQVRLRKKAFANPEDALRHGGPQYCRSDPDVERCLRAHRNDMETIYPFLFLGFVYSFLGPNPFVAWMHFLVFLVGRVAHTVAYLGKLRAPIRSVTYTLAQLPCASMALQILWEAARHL
Method: A cell-free assay was conducted to evaluate the capacity of compounds […] to act as inhibitors of mPGES-1. In this assay, microsomal fractions from IL-1β-stimulated A549 cells served as the enzyme source ([Gürses et al., 2021]). During the initial screening phase, compounds 3a–j were examined for their effects on mPGES-1 at a concentration of 10 µM.
Microsomal measures of A549 cells expressing mPGES-1 were made in accordance with prior research findings ([Koeberle et al., 2008]). These cells were cultivated in Dulbecco’s Modified Eagle Medium and resuspended in a homogenization buffer. Subsequently, the microsomes were subjected to pre-incubation with either assessed compounds or a carrier solution containing 0.1 percent DMSO. The enzymatic process was halted by introducing FeCl3, citric acid, and 11-PGE2 as an internal standard. The quantities of Prostaglandin E2 (PGE2) were measured via RP-HPLC methodologies.

[2] = target: T2, soya bean 5-LOX (Glycine max, UniProt P08170); assay: 5-LOX enzyme assay (EIA kit, Cayman 760700); format: biochemical
T2 construct: purchased Cayman Chemical, Ann Arbor, Michigan, USA 760700
T2 sequence (P08170 1-839): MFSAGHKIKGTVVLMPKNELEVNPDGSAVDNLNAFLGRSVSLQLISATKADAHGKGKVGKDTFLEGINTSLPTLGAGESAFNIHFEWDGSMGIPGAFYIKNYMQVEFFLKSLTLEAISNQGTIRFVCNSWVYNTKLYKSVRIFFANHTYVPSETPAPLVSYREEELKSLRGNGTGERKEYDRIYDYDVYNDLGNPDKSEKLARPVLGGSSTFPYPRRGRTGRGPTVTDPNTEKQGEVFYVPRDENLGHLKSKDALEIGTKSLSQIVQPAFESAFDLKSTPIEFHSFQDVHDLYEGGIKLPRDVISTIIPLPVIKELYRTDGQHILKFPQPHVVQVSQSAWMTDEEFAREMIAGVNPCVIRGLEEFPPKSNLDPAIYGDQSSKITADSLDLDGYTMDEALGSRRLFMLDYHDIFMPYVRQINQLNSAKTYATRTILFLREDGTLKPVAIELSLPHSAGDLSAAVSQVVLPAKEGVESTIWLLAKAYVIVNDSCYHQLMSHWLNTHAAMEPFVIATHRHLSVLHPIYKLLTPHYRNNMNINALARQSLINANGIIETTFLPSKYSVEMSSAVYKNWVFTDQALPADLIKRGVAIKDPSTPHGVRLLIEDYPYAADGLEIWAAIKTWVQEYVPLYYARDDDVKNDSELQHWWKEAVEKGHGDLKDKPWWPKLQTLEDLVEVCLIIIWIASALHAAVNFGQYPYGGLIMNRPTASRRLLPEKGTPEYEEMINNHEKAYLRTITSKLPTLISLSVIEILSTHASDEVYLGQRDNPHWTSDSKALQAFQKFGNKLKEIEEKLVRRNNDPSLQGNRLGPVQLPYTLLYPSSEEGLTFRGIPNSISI
From the text: The capacity of compounds 3a–j to inhibit the enzyme 5-lipoxygenase (5-LOX) has been investigated ([Youssif et al., 2019]).
The study used an enzyme immune assay (EIA) kit (catalogue no. 760700, Cayman Chemical, Ann Arbor, Michigan, USA) to evaluate the inhibitory activity of target analogues against soya bean 5-LOX, ensuring compliance with manufacturer’s instructions and protocols, and calculating IC50 values ([Roschek et al., 2009]).

[3] = test system: rat intestinal mucosa; assay: Gastric ulcerogenic activity (macroscopic inspection); format: in vivo; design: Score: Severity lesions: scale not given here; conditions: oral 10 mg/kg
Method: The two most common side effects of long-term NSAID use are gastrointestinal erosion and ulcers ([Hendawy et al., 2021]). As a result, we were curious about the ulcerogenic potential of the most efficacious drugs, 3e and 3j, when given orally. The ulcerogenic effects of 3e and 3j were assessed by macroscopic inspection of rat intestinal mucosa after oral administration of 10 mg/kg of 3e, 3j, indomethacin, and celecoxib ([Manivannan and Chaturvedi, 2011]).
The ulcerogenic effects of compounds 3e and 3j were evaluated by macroscopic examination of rat intestinal mucosa after oral administration of 10 mg/kg of these compounds and indomethacin and celecoxib ([Manivannan and Chaturvedi, 2011]). See Appendix A for details.

[4] = test system: carrageen-induced paw edema; assay: Carrageenan-induced paw edema bioassay; format: in vivo, rat; design: concentration or dose not given beside the values; conditions: for % Of edema inhibition 1 h: 1 h after carrageenan injection; for % Of edema inhibition 3 h: 3 h after carrageenan injection; for % Of edema inhibition 5 h: 5 h after carrageenan injection
Method: The compounds’ efficacy was measured as edema inhibition percentage (EI %) after 1, 3, and 5 h of carrageenan injection vs. the conventional medicine Celecoxib.
Compounds 3c, 3e, 3h, and 3j were chosen for in vivo anti-inflammatory testing using the carrageen-induced paw edema bioassay method described by [Winter et al, (1962)]. The compounds’ efficacy was measured as edema inhibition percentage (EI%) after 1, 3, and 5 h of carrageenan injection vs. the conventional medicine Celecoxib.

[5] = test system: IL-6; assay: Rat serum IL-6 after carrageenan (ELISA); format: in vivo; conditions: for IL-6 serum concentration: mean ± SE
From the text: (§1) In this study, specializing ELISA kits were used to determine the concentration of inflammatory cytokines PGE2, IL-6, and TNF-α. The study’s findings were examined in accordance with the instructions provided by the manufacturer, and measurements were taken based on the optical density at 450 nm.

[6] = test system: TNF-α; assay: Rat serum TNF-α after carrageenan (ELISA); format: in vivo; conditions: for TNFα serum concentration: mean ± SE
From the text: as §1

[7] = test system: PGE2; assay: Rat serum PGE2 after carrageenan (ELISA); format: in vivo; conditions: 4 hours after subcutaneous carrageenan; for PGE2 serum concentration: mean ± SE
From the text: Inhibiting PGE2 is a crucial strategy in anti-inflammatory therapy, playing a pivotal role in managing inflammation and its associated conditions.
as §1

Compound	melting point	remaining activity at 10 µM [1]	IC50 [1]	IC50 [2]	% Of edema inhibition 1 h [4]	% Of edema inhibition 3 h [4]	% Of edema inhibition 5 h [4]	also measured
CC1=C(C(=O)Nc2ccc(S(N)(=O)=O)cc2)C(c2cccc(O)c2)NC(=S)N1 (stereo not shown) [Compound 3b, 4-[3-hydroxyphenyl]-6-methyl-N-[4-sulfamoylphenyl]-2-thioxo-1,2,3,4-tetrahydropyrimidine-5-carboxamide]	288 to 291 °C	69.2%	3.89 µM	4.82 µM				
COc1ccc2c(c1)c(CC(=O)O)c(C)n2C(=O)c1ccc(Cl)cc1 [Indomethacin, reference compound]								Score: No. of gastric ulcers [3]: 8.5 ± 0.40; Score: Severity lesions [3]: 12.50 ± 0.70
Cc1cnc(NC(=O)C2=C(O)c3ccccc3S(=O)(=O)N2C)s1 [Meloxicam, reference compound]								IL-6 %inhibition [5]: 70%; TNFα %inhibition [6]: 62%; TNFα serum concentration [6]: 88.50 ± 2.40^ab pg/mL; PGE2 %inhibition [7]: 73%; PGE2 %inhibition ([7]; listed as meloxicam): 72.60%; PGE2 serum concentration [7]: 82.50 ± 2.58 ^b pg/mL
COc1ccc(C2NC(=S)NC(C)=C2C(=O)Nc2ccc(S(N)(=O)=O)cc2)cc1O (stereo not shown) [Compound 3c, 4-[3-hydroxy-4-methoxyphenyl]-6-methyl-N-[4-sulfamoylphenyl]-2-thioxo-1,2,3,4-tetrahydropyrimidine-5-carboxamide]	296 °C	33.6%	1.53 µM	2.87 µM	29%	46%	55%	fold less potent than 3j (mPGES-1) ([1]; from IC50 values): 1.5 fold
CC1=C(C(=O)Nc2ccc(S(N)(=O)=O)cc2)C(c2ccccc2)NC(=S)N1 (stereo not shown) [Compound 3a, 6-methyl-4-phenyl-N-[4-sulfamoylphenyl]-2-thioxo-1,2,3,4-tetrahydropyrimidine-5-carboxamide]	266 to 269 °C	89.2%	4.28 µM	5.85 µM				
Cc1ccc(-c2cc(C(F)(F)F)nn2-c2ccc(S(N)(=O)=O)cc2)cc1 [Celecoxib, reference compound]					40%	54%	22%	Score: No. of gastric ulcers [3]: 2.5 ± 0.10; Score: Severity lesions [3]: 5.80 ± 0.20

Second part, led by results:

melting point	remaining activity at 10 µM [1]	IC50 [1]	IC50 [2]	Compound	% Of edema inhibition 1 h [4]	% Of edema inhibition 3 h [4]	% Of edema inhibition 5 h [4]	also measured
260 to 263 °C	53.6%	2.89 µM	3.97 µM	COc1cc(C2NC(=O)NC(C)=C2C(=O)Nc2ccc(S(N)(=O)=O)cc2)cc(OC)c1OC (stereo not shown) [Compound 3i, 6-methyl-2-oxo-N-[4-sulfamoylphenyl]-4-[3,4,5-trimethoxyphenyl]-1,2,3,4-tetrahydropyrimidine-5-carboxamide]				
266 to 267 °C	24.7%	0.92 µM	1.98 µM and 1.89 µM	COc1ccc(C2NC(=O)NC(C)=C2C(=O)Nc2ccc(S(N)(=O)=O)cc2)cc1OC (stereo not shown) [Compound 3j, 4-[3,4-dimethoxyphenyl]-6-methyl-2-oxo-N-[4-sulfamoylphenyl]-1,2,3,4-tetrahydropyrimidine-5-carboxamide]	38%	60%	71%	Score: No. of gastric ulcers [3]: 0; Score: Severity lesions [3]: 0; Ulceration in the isolated rat stomach (in words) [3]: did not generate ulceration; IL-6 %inhibition [5]: 77%; IL-6 serum concentration [5]: 85.50 ± 2.35^bc pg/mL; TNFα %inhibition [6]: 71%; TNFα serum concentration [6]: 68.50 ± 2.00^bc pg/mL; fold more potent than the reference MK886 (mPGES-1) ([1]; from IC50 values): 2.4 fold; PGE2 %inhibition [7]: 79.20% and 79%; PGE2 serum concentration [7]: 62.60 ± 2.75 ^b pg/mL
270 to 272 °C	64.7%	3.45 µM	4.45 µM	CC1=C(C(=O)Nc2ccc(S(N)(=O)=O)cc2)C(c2cccc(O)c2)NC(=O)N1 (stereo not shown) [Compound 3g, 4-[3-hydroxyphenyl]-6-methyl-2-oxo-N-[4-sulfamoylphenyl]-1,2,3,4-tetrahydropyrimidine-5-carboxamide]				
270 to 272 °C	46.8%	2.7 µM	3.65 µM	COc1cc(C2NC(=S)NC(C)=C2C(=O)Nc2ccc(S(N)(=O)=O)cc2)cc(OC)c1OC (stereo not shown) [Compound 3d, 6-Methyl-N-[4-sulfamoylphenyl]-2-thioxo-4-[3,4,5-trimethoxyphenyl]-1,2,3,4-tetrahydropyrimidine-5-carboxamide]				
258 to 260 °C	91.4%	4.78 µM	5.34 µM	CC1=C(C(=O)Nc2ccc(S(N)(=O)=O)cc2)C(c2ccccc2)NC(=O)N1 (stereo not shown) [Compound 3f, 6-methyl-2-oxo-4-phenyl-N-[4-sulfamoylphenyl]-1,2,3,4-tetrahydropyrimidine-5-carboxamide]				
275 to 279 °C	31.2%	1.32 µM	2.64 µM	COc1ccc(C2NC(=O)NC(C)=C2C(=O)Nc2ccc(S(N)(=O)=O)cc2)cc1O (stereo not shown) [Compound 3h, 4-[3-hydroxy-4-methoxyphenyl]-6-methyl-2-oxo-N-[4-sulfamoylphenyl]-1,2,3,4-tetrahydropyrimidine-5-carboxamide]	30%	49%	58%	IL-6 %inhibition [5]: 63%; IL-6 serum concentration [5]: 140.70 ± 4.20^ab pg/mL; TNFα %inhibition [6]: 56%; TNFα serum concentration [6]: 102.70 ± 2.90^ab pg/mL; fold less potent than 3j (mPGES-1) ([1]; from IC50 values): 1.5 fold; PGE2 %inhibition [7]: 69%; PGE2 serum concentration [7]: 95.00 ± 2.50^abc pg/mL
